These are literature values, as cited in US20070265329A1, “Methods for the prevention of acute and delayed chemotherapy-induced nausea and vomiting (CINV)” (priority 2006, published 2007).

Data set [1] deals with patients (acute phase CINV). The note with it: over 24 hours (acute phase); study of 233 patients.
The test system of the next data set is delayed onset CINV. The note with it: administered twice a day.
In data set [2] the test system is patients following moderately emetogenic chemotherapy.
The conditions of data set [3]: or 7 days.

Read-outs that look alike come from different tables or passages of the source.

In the case of `CN1C2CCCC1CC(NC(=O)c1nn(C)c3ccccc13)C2` (centres unmarked) [Kytril®, granisetron], the “complete response (no vomiting, no moderate or severe nausea, no rescue medication)” value in data set [1] is on record as 81%. Also, the “clearance in cancer patients” value (compared with normal volunteers) is given as “approximately half that of normal volunteers”. The peak plasma concentrate (oral, 1 mg bid over seven days) was 6.0 ng/mL. For the same compound, the “treatment of delayed onset CINV” value in the data set on delayed onset CINV is “effective”.
With `O=C1c2cccc3c2[C@H](CCC3)CN1[C@@H]1CN2CCC1CC2` [Aloxi®, palonosetron], the “patients who did not vomit or need additional medication for nausea” value was 64% in data set [2] (days 2-5 following moderately emetogenic chemotherapy) and 72% in data set [2] (first day following moderately emetogenic chemotherapy). Besides, the “most common side effects” value in data set [2] (patients taking Aloxi) is “headache and constipation”. Also, the “still detectable in the systemic circulation at” value in data set [3] is at least 168 h.
